Experimental data: patent US9526720B2, “Modulators of hepatic lipoprotein metabolism” (The Broad Institute, Inc., priority 2012, dated 2016)
Entries after “also recorded” stand apart in the source; their conditions may differ.

Tests used:
ApoB = assay: ELISA of secreted ApoB in HepG2 cells; assay type: cell-based, human; conditions: for ELISA ApoB: HepG2 cells
Protocol: (§1) Additional secondary assays were performed in HepG2 cells to further characterize the cellular response to treatment with select confirmed TRIB1 inducer hits. The results of the ELISA, CTG, and qPCR secondary assays are summarized in Table B. For all secondary assays, the experiments were performed using powders of freshly purified compounds.
(§2) To further characterize the relationship of TRIB1 induction and PCSK9 reduction, ELISAs were performed to measure the levels of secreted ApoB, PCSK9, and LDLR. […] As predicted treatment with TRIB1 inducer hits caused a decrease in ApoB levels detected by ELISA. In parallel effort, 3200 BIOA and NATP compounds were screened for PCSK9 expression inhibitors. Hits were defined as inducing greater than 3-fold downregulation of PCSK9, and 3.8% of the screened compounds were confirmed as hits. […] In further experiments, a strong correlation was confirmed between TRIB1 induction and PCSK9 repression in DOS Collection hits. ELISA analysis confirmed that treatment with TRIB1 inducers reduced the PCSK9 protein levels. LDLR protein levels were also analyzed by ELISA to determine whether compounds that modulate both TRIB1 and PCSK9 had any effect on LDLR protein levels.

LDLR [1] = assay: ELISA of LDLR protein in HepG2 cells; assay type: cell-based, human; design: key to ELISA LDLR: A: Increase <2-fold; B: Increase >2-fold; X: Decrease <2-fold; Y: Decrease >2-fold; No significant change; conditions: for ELISA LDLR: HepG2 cells
Protocol: as §1, §2

PCSK9 [2] = assay: ELISA of secreted PCSK9 protein in HepG2 cells; assay type: cell-based, human; conditions: for ELISA PCSK9: HepG2 cells
Protocol: as §1, §2

HepG2 cells [3] = assay: Cell Titer Glo (CTG) cell viability assay; assay type: cell-based, human; design: key: A: Increase <2-fold; B: Increase >2-fold; X: Decrease <2-fold; Y: Decrease >2-fold; No significant change; conditions: cell viability (ATP)
Protocol: Cell viability was determined using a Cell Titer Glo (CTG) assay ([…]) after treatment with TRIB1 inducer compounds. In this assay, the number of viable cells in culture is based on quantitation of ATP, which indicates metabolically active cells. Addition of the reagent results in cell lysis and generation of a luminescent signal proportional to the amount of ATP present, which is directly proportional to the number of viable, metabolically active cells present in culture. Most TRIB1 inducer compounds had no significant effect on cell viability.

TRIB1 = assay: qPCR TRIB1 expression in HepG2 cells; assay type: cell-based, human; conditions: for fold induction at 10 µM: Homo sapiens, 20 h, HepG2 cells
Protocol: (§3) In the primary screen, HepG2 cells were plated in 384-well plates at 2000 cells per well and incubated for 20 hours with each compound in duplicate at 10 microM concentration. Then RNA was isolated, reverse-transcribed to cDNA, and stored at −80° C. Expression levels of TRIB1 and other target genes, such as SORT1 and PCSK9, were determined by quantitative PCR. Relative gene expression level was normalized to expression of the housekeeping gene, GAPDH. A “hit” was defined as those compounds that caused a greater than 2-fold increase in relative target gene expression when normalized to GAPDH expression, compared to DMSO-treated control. Using these criteria, 130 hits were identified for TRIB1 (0.8% hit rate).
(§4) Further analysis of the expression levels of various proteins in the cholesterol and triglyceride biosynthetic pathways in response to TRIB1 inducer treatment was performed. In particular, transcript levels of additional lipoprotein metabolism pathway proteins SCAP, SREBF1, SREBF2, HMGCR, HMGCS, SCD1, FASN and MTTP were assessed by qPCR, along with TRIB1, LDLR, and PCSK9. The gene expression profile for the same subset of genes was also assessed after treatment with the statin atorvastatin (Lipitor), commonly used in therapy for hypercholesterolemia and other cardiovascular diseases.
(§5) The kinetics of the modulation of TRIB1, LDLR, PCSK9 and MTTP gene expression after treatment by select TRIB1 inducer compounds was monitored by qPCR analysis (FIG. 4). RNA was extracted from cells at various timepoints over 28 hours of treatment (0, 2, 4, 6, 8, 24, 28 hours). Specifically, compounds 12a and 14a induced transcriptional responses over time similar to those produced by berberine, a plant alkaloid used in Chinese medicine. […] Both compound 12a and compound 14a induce TRIB1 and LDLR and repress PCSK9 and MTTP expression with similar kinetics and similar fold change as berberine Importantly, both compounds induce these gene expression changes at much lower concentrations than berberine. […] This increased potency indicates the potential therapeutic efficacy of such compounds for treatment of cardiovascular diseases, particularly hypercholesterolemia and related conditions.

SCAP = assay: qPCR SCAP transcript level in HepG2 cells; assay type: cell-based, human; design: key: A: Increase <2-fold; B: Increase >2-fold; X: Decrease <2-fold; Y: Decrease >2-fold; No significant change
Protocol: as §3, §4

SREBF1 = assay: qPCR SREBF1 transcript level in HepG2 cells; assay type: cell-based, human; design: key: A: Increase <2-fold; B: Increase >2-fold; X: Decrease <2-fold; Y: Decrease >2-fold; No significant change
Protocol: as §3, §4

SREBF2 = assay: qPCR SREBF2 transcript level in HepG2 cells; assay type: cell-based, human; design: key: A: Increase <2-fold; B: Increase >2-fold; X: Decrease <2-fold; Y: Decrease >2-fold; No significant change
Protocol: as §3, §4

PCSK9 [4] = assay: qPCR PCSK9 expression in HepG2 cells; assay type: cell-based, human; conditions: for fold induction at 10 µM: Homo sapiens, 20 h, HepG2 cells
Protocol: as §3, §4, §5

LDLR [5] = assay: qPCR LDLR expression in HepG2 cells; assay type: cell-based, human; conditions: for qPCR LDLR: HepG2 cells
Protocol: as §3, §4, §5

HMGCR = assay: qPCR HMGCR transcript level in HepG2 cells; assay type: cell-based, human
Protocol: as §3, §4

HMGCS = assay: qPCR HMGCS transcript level in HepG2 cells; assay type: cell-based; conditions: Homo sapiens, 20 h
Protocol: as §3, §4

FASN = assay: qPCR FASN transcript level in HepG2 cells; assay type: cell-based; conditions: Homo sapiens, 20 h
Protocol: as §3, §4

SCD1 = assay: qPCR SCD1 transcript level in HepG2 cells; assay type: cell-based; conditions: Homo sapiens, 20 h
Protocol: as §3, §4

APOC3 = assay: Transcriptional profiling of APOC3 gene in HepG2 cells; assay type: cell-based, human; conditions: 10 μM, 24 hours
Excerpt: Expression of APOC3 is associated with increased levels of triglycerides in plasma and carriers of APOC3 gene null mutation have low levels of triglycerides and are protected from cardiovascular disease (Pollin et al., Science, 322:1702, 2008).

HepG2 cells [6] = assay: BODIPY-FL LDL uptake in HepG2 cells (high content microscopy); assay type: cell-based, human; conditions: treated 20 hours; BODIPY-FL LDL uptake monitored 5 hours
Protocol: TRIB1 inducers increase the rate of LDL uptake. HepG2 cells grown under standard culture conditions (10% FBS) were treated for 20 hours with compounds 2a, 14a and 12a at indicated concentrations and the uptake of BODIPY-FL conjugated LDL particles was monitored for 5 hours using high content microscopy. To control for regulation of LDL uptake by cholesterol, cells were grown in media depleted for (0.5% LPDS—lipoprotein deficient serum) or supplemented with cholesterol (0.5% LPDS plus cholesterol ([…] cholesterol and […] 25-OH cholesterol)).

LDLR [7] = assay: qPCR LDLR expression in HepG2 cells; assay type: cell-based, human; conditions: overnight simvastatin, then compound
[8] = at the maximal dose tested, HepG2

Structure (SMILES) | ELISA ApoB (ApoB) | ELISA LDLR (LDLR [1]) | ELISA PCSK9 (PCSK9 [2]) | CTG (HepG2 cells [3]) | fold induction at 10 µM (TRIB1) | qPCR SCAP (SCAP) | qPCR SREBF1 (SREBF1) | qPCR SREBF2 (SREBF2) | fold induction at 10 µM (PCSK9 [4]) | qPCR LDLR (LDLR [5]) | qPCR HMGCR (HMGCR) | fold induction at 10 µM (HMGCS) | fold induction at 10 µM (FASN) | fold induction at 10 µM (SCD1) | further results
O=C(C[C@@H]1CC[C@@H]2[C@H](COC[C@H](O)CN2CCC(F)(F)F)O1)NCc1ccc(Oc2ccccc2)cc1 [Compound 10a] | Y (Decrease >2-fold) | N | X (Decrease <2-fold) | N | > 2 | N | N | N | > 2 | B (Increase >2-fold) | Y (Decrease >2-fold) | > 2 | < 2 | > 2 | 
O=C(C[C@H]1C[C@H]2c3cc(NS(=O)(=O)c4ccc(F)cc4)ccc3O[C@H]2[C@H](CO)O1)NCc1ccc(Oc2ccccc2)cc1 [Compound 13a] | Y (Decrease >2-fold) | X (Decrease <2-fold) | Y (Decrease >2-fold) | N | > 2 | N | N | N | > 2 | B (Increase >2-fold) | Y (Decrease >2-fold) | > 2 | < 2 | > 2 | 
CN1C(=O)c2cc(NC(=O)c3ccc(C(F)(F)F)cc3)ccc2OC[C@@H]2O[C@@H](CC(=O)NC3Cc4ccccc4C3)CC[C@@H]21 [Compound 2a] | Y (Decrease >2-fold) | B (Increase >2-fold) | Y (Decrease >2-fold) | N | > 2 | N | N | N | > 2 | B (Increase >2-fold) | Y (Decrease >2-fold) | > 2 | > 2 | > 2 | secretion of apoB into the media / ApoB levels (in words) (ApoB; HepG2): inhibited secretion of apoB; increase of the LDL receptor protein in the cell (LDLR [1]; HepG2): 3 fold; inhibition of secretion of PCSK9 protein into the media (PCSK9 [2]; [8]): 70%; TRIB1 expression (in words) (TRIB1; HepG2, qPCR): robustly induced; PCSK9 expression (in words) (PCSK9 [4]; HepG2, qPCR): strongly reduced; inhibition of expression of PCSK9 mRNA (PCSK9 [4]; [8]): 70%; expression of PCSK9 stimulated by pretreatment with atorvastatin (in words) (PCSK9 [4]; atorvastatin pretreatment): potently reduced; LDLR expression (in words) (LDLR [5]; HepG2, qPCR): induction of LDLR expression; also recorded: robustly induced; expression of APOC3 gene (in words) (APOC3): down regulates; rate of LDL uptake (in words) (HepG2 cells [6]): robust increase; induction of LDLR expression in combination with simvastatin (in words) (LDLR [7]): additive effect
O=C(C[C@H]1C[C@H]2c3cc(NC(=O)c4ccc5c(c4)OCO5)ccc3O[C@H]2[C@H](CO)O1)NCc1ccc(Oc2ccccc2)cc1 [Compound 11a] | Y (Decrease >2-fold) | B (Increase >2-fold) | Y (Decrease >2-fold) | Y (Decrease >2-fold) | > 2 | N | Y (Decrease >2-fold) | Y (Decrease >2-fold) | > 2 | B (Increase >2-fold) | Y (Decrease >2-fold) | > 2 | > 2 | > 2 | 
O=C(C[C@H]1CC[C@H]2[C@@H](COC[C@@H](O)CN2Cc2ccc(Oc3ccccc3)cc2)O1)N1CCc2ccccc2C1 [Compound 7a] | Y (Decrease >2-fold) | B (Increase >2-fold) | Y (Decrease >2-fold) | N | > 2 | N | N | N | > 2 | B (Increase >2-fold) | Y (Decrease >2-fold) | > 2 | < 2 | < 2 | 
CN1C(=O)c2cc(NC(=O)Cc3cccs3)ccc2OC[C@@H]2O[C@H](CC(=O)NCc3ccc(-c4ccccc4)cc3)CC[C@@H]21 [Compound 4a] | Y (Decrease >2-fold) | A (Increase <2-fold) | X (Decrease <2-fold) | N | > 2 | X (Decrease <2-fold) | X (Decrease <2-fold) | X (Decrease <2-fold) | > 2 | A (Increase <2-fold) | X (Decrease <2-fold) | > 2 | > 2 | < 2 | 
O=C(C[C@@H]1CC[C@@H]2[C@H](COC[C@@H](O)CN2CCC(F)(F)F)O1)NCc1ccc(Oc2ccccc2)cc1 [Compound 8a] | Y (Decrease >2-fold) | B (Increase >2-fold) | X (Decrease <2-fold) | N | > 2 | N | N | N | > 2 | B (Increase >2-fold) | Y (Decrease >2-fold) | > 2 | < 2 | < 2 | 
